# Experimental data: PubChem BioAssay (NCI)
#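 Each compound was tested at five concentrations against cells in 96-well plates for 48 hours. Abbreviation: GI50, concentration required for 50% inhibition of growth. TGI marks complete inhibition of growth.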
# Key:
# Assay in all cases: DTP human tumour cell line panel, 48 h
# DU-145 prostate = system: DU-145 prostate
# HT29 colon = system: HT29 colon
# TK-10 renal = system: TK-10 renal
# MDA-MB-435 = system: MDA-MB-435
# SF-268 CNS = system: SF-268 CNS
# T-47D breast = system: T-47D breast
# NCI-H226 lung = system: NCI-H226 lung
# OVCAR-3 ovarian = system: OVCAR-3 ovarian
# CCRF-CEM leukemia = system: CCRF-CEM leukemia
# SK-OV-3 ovarian = system: SK-OV-3 ovarian
# IGROV1 ovarian = system: IGROV1 ovarian
# NCI-H23 lung = system: NCI-H23 lung
# COLO 205 colon = system: COLO 205 colon
# SK-MEL-28 melanoma = system: SK-MEL-28 melanoma
# NCI-H460 lung = system: NCI-H460 lung
# UO-31 renal = system: UO-31 renal
# A549 NSCLC = system: A549 NSCLC
# EKVX NSCLC = system: EKVX NSCLC
# ACHN renal = system: ACHN renal
# CAKI-1 renal = system: CAKI-1 renal
# HOP-62 NSCLC = system: HOP-62 NSCLC
# SK-MEL-5 melanoma = system: SK-MEL-5 melanoma
# SK-MEL-2 melanoma = system: SK-MEL-2 melanoma
# SW-620 colon = system: SW-620 colon
# OVCAR-4 ovarian = system: OVCAR-4 ovarian
# NCI/ADR-RES ovarian = system: NCI/ADR-RES ovarian
# SF-295 CNS = system: SF-295 CNS
# KM12 colon = system: KM12 colon
# M14 melanoma = system: M14 melanoma
# RPMI-8226 leukemia = system: RPMI-8226 leukemia
# SNB-75 CNS = system: SNB-75 CNS
# OVCAR-5 ovarian = system: OVCAR-5 ovarian
# OVCAR-8 ovarian = system: OVCAR-8 ovarian
# MDA-MB-231 breast = system: MDA-MB-231 breast
# PC-3 prostate = system: PC-3 prostate
# SN12C renal = system: SN12C renal
# NCI-H522 lung = system: NCI-H522 lung
# SNB-19 CNS = system: SNB-19 CNS
# HL-60(TB) leukemia = system: HL-60(TB) leukemia
# BT-549 breast = system: BT-549 breast
# K-562 leukemia = system: K-562 leukemia
# UACC-62 melanoma = system: UACC-62 melanoma
# HCC-2998 colon = system: HCC-2998 colon
# SF-539 CNS = system: SF-539 CNS
# HS 578T breast = system: HS 578T breast
# MALME-3M melanoma = system: MALME-3M melanoma
# A498 renal = system: A498 renal
# SR leukemia = system: SR leukemia
# MOLT-4 leukemia = system: MOLT-4 leukemia
# RXF 393 renal = system: RXF 393 renal
# MCF7 breast = system: MCF7 breast
# UACC-257 melanoma = system: UACC-257 melanoma
# HOP-92 NSCLC = system: HOP-92 NSCLC
structure (smiles),measurement,setting,value
COc1cc2c(cc1OCCCN1CCN(c3ncnc4ccccc34)CC1)N=CC1CCCN1C2=O (stereo unspecified),GI50,DU-145 prostate,27.8 nM
same,TGI,DU-145 prostate,311 nM
same,GI50,HT29 colon,29.8 nM
same,GI50,TK-10 renal,29.3 nM
same,TGI,TK-10 renal,1080 nM
same,GI50,MDA-MB-435,21.4 nM
same,TGI,MDA-MB-435,49.8 nM
same,GI50,SF-268 CNS,33.9 nM
same,TGI,SF-268 CNS,625 nM
same,GI50,T-47D breast,22.2 nM
same,TGI,T-47D breast,75.7 nM
same,GI50,NCI-H226 lung,34.8 nM
same,TGI,NCI-H226 lung,247 nM
same,GI50,OVCAR-3 ovarian,26.9 nM
same,TGI,OVCAR-3 ovarian,59.5 nM
same,GI50,CCRF-CEM leukemia,< 14.6 nM
same,TGI,CCRF-CEM leukemia,480 nM
same,GI50,SK-OV-3 ovarian,32.6 nM
same,TGI,SK-OV-3 ovarian,6780 nM
same,GI50,IGROV1 ovarian,12.6 nM
same,TGI,IGROV1 ovarian,26.9 nM
same,GI50,NCI-H23 lung,26.8 nM
same,TGI,NCI-H23 lung,81.9 nM
same,GI50,COLO 205 colon,20.3 nM
same,TGI,COLO 205 colon,44.6 nM
same,GI50,SK-MEL-28 melanoma,33.6 nM
same,TGI,SK-MEL-28 melanoma,103 nM
same,GI50,NCI-H460 lung,28.2 nM
same,TGI,NCI-H460 lung,298 nM
same,GI50,UO-31 renal,75.4 nM
same,TGI,UO-31 renal,558 nM
same,GI50,A549 NSCLC,35.6 nM
same,TGI,A549 NSCLC,> 47900 nM
same,GI50,EKVX NSCLC,152 nM
same,TGI,EKVX NSCLC,677 nM
same,GI50,ACHN renal,42.6 nM
same,TGI,ACHN renal,564 nM
same,GI50,CAKI-1 renal,19.1 nM
same,TGI,CAKI-1 renal,57.4 nM
same,GI50,HOP-62 NSCLC,28.2 nM
same,TGI,HOP-62 NSCLC,278 nM
same,GI50,SK-MEL-5 melanoma,16.8 nM
same,TGI,SK-MEL-5 melanoma,32.3 nM
same,GI50,SK-MEL-2 melanoma,64.6 nM
same,TGI,SK-MEL-2 melanoma,512 nM
same,GI50,SW-620 colon,19.8 nM
same,TGI,SW-620 colon,55.6 nM
same,GI50,OVCAR-4 ovarian,63.3 nM
same,TGI,OVCAR-4 ovarian,8630 nM
same,GI50,NCI/ADR-RES ovarian,373 nM
same,TGI,NCI/ADR-RES ovarian,7110 nM
same,GI50,SF-295 CNS,25.8 nM
same,TGI,SF-295 CNS,54.5 nM
same,GI50,KM12 colon,32.5 nM
same,TGI,KM12 colon,183 nM
same,GI50,M14 melanoma,30.3 nM
same,TGI,M14 melanoma,138 nM
same,GI50,RPMI-8226 leukemia,< 11.9 nM
same,TGI,RPMI-8226 leukemia,35.3 nM
same,GI50,SNB-75 CNS,35.7 nM
same,TGI,SNB-75 CNS,168 nM
same,GI50,OVCAR-5 ovarian,26.3 nM
same,TGI,OVCAR-5 ovarian,71.7 nM
same,GI50,OVCAR-8 ovarian,43 nM
same,TGI,OVCAR-8 ovarian,> 53600 nM
same,GI50,MDA-MB-231 breast,20.5 nM
same,TGI,MDA-MB-231 breast,73.6 nM
same,GI50,PC-3 prostate,23.2 nM
same,TGI,PC-3 prostate,97.3 nM
same,GI50,SN12C renal,37.4 nM
same,TGI,SN12C renal,3970 nM
same,TGI,NCI-H522 lung,28.5 nM
same,GI50,SNB-19 CNS,41 nM
same,TGI,SNB-19 CNS,11200 nM
same,GI50,HL-60(TB) leukemia,30.7 nM
same,GI50,BT-549 breast,24.8 nM
same,TGI,BT-549 breast,89.5 nM
same,GI50,K-562 leukemia,26.2 nM
same,GI50,UACC-62 melanoma,18 nM
same,TGI,UACC-62 melanoma,37.9 nM
same,GI50,HCC-2998 colon,19 nM
same,TGI,HCC-2998 colon,38.1 nM
same,GI50,SF-539 CNS,27.1 nM
same,TGI,SF-539 CNS,69.6 nM
same,GI50,HS 578T breast,< 17.7 nM
same,TGI,HS 578T breast,56.8 nM
same,GI50,MALME-3M melanoma,19.8 nM
same,TGI,MALME-3M melanoma,47.9 nM
same,TGI,A498 renal,16.4 nM
same,GI50,SR leukemia,< 14.9 nM
same,TGI,SR leukemia,96.8 nM
same,GI50,MOLT-4 leukemia,17.5 nM
same,TGI,MOLT-4 leukemia,59.6 nM
same,GI50,RXF 393 renal,20.5 nM
same,TGI,RXF 393 renal,39.4 nM
same,GI50,MCF7 breast,18.9 nM
same,TGI,MCF7 breast,1020 nM
same,GI50,UACC-257 melanoma,150 nM
same,TGI,UACC-257 melanoma,737 nM
same,GI50,HOP-92 NSCLC,19.9 nM
same,TGI,HOP-92 NSCLC,52.9 nM
